How the values were obtained:
[1] = test system: cultured hippocampal samples; assay: fEPSP recording on MED probe: neurodegeneration induced by NMDA and AMPA; format: cell-based, Sprague-Dawley rats; details: for effect of chronic exposure on synaptic responses: chronic exposure of cultured hippocampal samples; for Hill coefficient: electrophysiology dose-response curve; for EC50: electrophysiology, various concentrations of agonist, read-out: EC50 (decrease of synaptic responses, Hill fit of plateau values of I/O curves); for synaptic responses, of the initial amplitude: then one hour of NMDA wash-out
Protocol: Before use, the MED probes (Panasonic, model MED-P530AP, each electrode: […], interpolar distance: 300 μm) were soaked in 70% ethanol for 15 minutes, dried, and then sterilized with UV radiation for 15 minutes. The probe surfaces were treated overnight at room temperature with 0.1% polyethylenimine and 25 mM borate buffer, pH 8.4. The probe surface was then dried and rinsed 3 times with sterile distilled water. Finally, the probes were filled with culture medium and stored in a CO2 incubator until use (for at least one hour). The culture medium was a 2:1 mixture of Basal Medium Eagle Medium (Sigma, Catalog No. B9638) and Earle Balanced Salts Solution (Sigma, Catalog No. E7510), supplemented with the following compounds (in mM): NaCl (20), NaHCO3 (5), CaCl2 (0.2), MgSO4 (1.7), glucose (48), HEPES (26.7); 5% horse serum (GIBCO, Catalog No. 26050) and 10 ml/L penicillin-streptomycin (GIBCO, Catalog No. 10378). The pH of culture medium was then adjusted to 7.2.
All procedures for culture preparation were carried out under a sterilized bench. Eleven day-old Sprague-Dawley rats were first sterilized with 70% ethanol, sacrificed by decapitation following anesthesia and the whole brain removed. The brains were immediately soaked in sterile ice-cold MEM (pH 7.2; GIBCO, Catalog No. 61100), supplemented with HEPES (25 mM), Tris-base (10 mM), glucose (10 mM) and MgCl2 (3 mM). Appropriate portions of the brain were then trimmed by hand and the remaining brain block placed on an ice-cold stage of a vibrating tissue slicer (Leica, model VT1000S). The thickness of the slices was set at 200 μm. The slices were gently taken off from the blade with a pipette. Each slice was trimmed, placed on the center of the MED probe, which was previously coated as mentioned above, and positioned to cover the 8×8 microelectrode array.
After positioning the section on the MED probe, the cutting solution was removed and culture medium added to the slice up to an interface level (approximately […]). Sterile distilled water was added around the probe to increase humidity and prevent over-drying of the culture medium in the MED probe. The slices on the MED probes were then stored in a CO2 incubator at 34° C. The medium was exchanged with half volume every day.
(§1) For baseline electrophysiological recordings in hippocampal samples, the MED probes containing the samples were removed from the incubator and placed in a smaller CO2 incubator at 34° C. and connected to the stimulation/recording component of the probe. The culture medium was replaced with sterile artificial cerebrospinal fluid (ACSF) of the following composition (in mM): NaCl (124), NaHCO3 (26), glucose (10), KCl (3), NaH2PO4 (1.25), CaCl2 (2), MgSO4 (1), and HEPES (10).
(§2) Evoked field potentials at all 64 sites were then recorded simultaneously with the multi-channel recording system (Panasonic, MED64 system) at a 20 kHz sampling rate. One of the planar microelectrodes of the 64 available was used for cathode stimulation. Bipolar constant current pulses (10 to 45 μA, 0.1 msec) were then produced. To collect typical responses in field CA1, one of the electrodes in the Schaffer collateral fibers was selected as a stimulating electrode while another one in stratum radiatum was selected as a recording electrode. Synaptic responses were recorded at eight-step stimulation intensities (10 to 45 μA, 5 μA steps). After each recording session, ACSF was replaced with culture medium and the samples in the probes were returned to the CO2 incubator.
fEPSPs were recorded at 20 s intervals using a paired-pulse stimulation paradigm with an inter-pulse interval of 50 msec. […] Slope and decay time of the responses were remarkably similar to those recorded in acutely prepared slices using the same system (FIG. 2C). […]

[2] = test system: cultured hippocampal samples; assay: PI uptake method, dose-response of excitotoxins; format: cell-based; details: for Hill coefficient (PI uptake method): PI uptake dose-response curve; for EC50: PI uptake, read-out: EC50 from the PI uptake method
Protocol: The mechanisms underlying the reduction in amplitude of synaptic responses produced by incubation with these two excitotoxins were further studied by applying various concentrations of NMDA and AMPA to tissue samples. As in the control experiments, the plateau values of the respective I/O curves were used for the analysis (FIGS. 4A and 4B). […] For comparison, dose-response curves obtained with the PI uptake method were plotted in the same figures (FIGS. 4A and 4B, open circles and dashed lines).

[3] = test system: neuronal samples chronically exposed to NMDA; assay: Neuroprotectant assay: fEPSP amplitude on MED probe with 10 μM NMDA as excitotoxin; format: cell-based, Sprague-Dawley rats
Protocol: An assay for identifying neuroprotectants first involves testing the stability of the recordings by comparing FEPSP amplitudes measured at the beginning of the experiments with those measured later, e.g., after at least 3, 24, 48, and 72 hours at the same stimulation intensity (FIG. 1C). For data analysis, the amplitude of the maximal (plateau) value of the I/O curve is used to determine stability of the recordings. Typically, it corresponds to responses obtained by stimulation intensities of […] (FIG. 2B).
NMDA was selected as the excitotoxin. Based on the dose-response analysis described above (FIG. 4A), 10 μM NMDA was chosen as the concentration of agonist for use in this neuroprotectant assay. […] The neuronal samples and MED probes were prepared as described above.
After performing control measurements, neuronal samples were incubated in culture medium containing 10 μM NMDA and 1 μM MK-801 for various periods of time. […] The relative amplitude of synaptic responses measured at stimulation intensities corresponding to the plateau of I/O curves after 3 days of incubation was 91±6% of control (n=3).
After performing control measurements, neuronal samples were incubated in culture medium containing 10 μM NMDA and 30 μM memantine for various periods of time. […] However the degree of protection was much smaller than that provided by MK-801, as only 78±5% (n=3) of the initial amplitude was preserved under these conditions. The concentration dependency of memantine protection was studied using 10 μM NMDA and various concentrations of memantine.

neuronal samples = assay: fEPSP recording on MED probe: incubation with NMDA antagonist alone; format: cell-based, Sprague-Dawley rats; details: for amplitudes of responses, of control: n=3
Protocol: as §1, §2
However, after 1, 2, and 3 days of incubation, the amplitudes of responses were decreased to 83±6%, 79±11%, and 76±10% (n=3) of control, respectively.

Cc1onc(O)c1CC(N)C(=O)O (stereo not drawn) [AMPA, amino-3-hydroxy-5-methyl-4-isoxazolepropionic acid]
recovery of synaptic responses after agonist removal ([1]; 1 μM AMPA 3 days, then 24 hours of AMPA removal): no recovery was observed
time course of the decrease in synaptic response ([1]; 1 μM AMPA, three hours and subsequent time points): continued to decrease at subsequent time points, stabilizing after 1 day
amplitude of synaptic responses, of control values ([1]; 40 min. incubation with 3 μM AMPA, n=3): 12±5%
synaptic response amplitudes ([1]; 3 days of incubation with 1 μM AMPA, n=3): 46±4%
effect of chronic exposure on synaptic responses [1]: dose-dependent decreases in synaptic responses
Hill coefficient [1]: 2.6±0.8
EC50 [1]: 0.81 ± 0.1 µM
Hill coefficient (PI uptake method) [2]: 2.0±0.1
EC50 [2]: 3.87 ± 0.1 µM

C[C@]12N[C@H](Cc3ccccc31)c1ccccc12 [MK-801]
protection of synaptic transmission against NMDA-mediated neurotoxicity ([3]; 10 μM NMDA and 1 μM MK-801, 3 hours up to 3 days): almost completely protected
relative amplitude of synaptic responses at plateau of I/O curves, of control ([3]; 10 μM NMDA and 1 μM MK-801, 3 days of incubation, n=3): 91±6%
synaptic responses (neuronal samples; 1 μM MK-801 alone, 3 hours of incubation): not affected
amplitudes of responses, of control (neuronal samples; 1 μM MK-801 alone, 1 day of incubation): 83±6%
amplitudes of responses, of control (neuronal samples; 1 μM MK-801 alone, 2 days of incubation): 79±11%
amplitudes of responses, of control (neuronal samples; 1 μM MK-801 alone, 3 days of incubation): 76±10%

CN[C@H](CC(=O)O)C(=O)O [NMDA, N-methyl-D-aspartate]
synaptic responses, of the initial amplitude ([1]; 10 μM NMDA for 40 min.): 109±4%
synaptic responses, of the initial amplitude ([1]; 10 μM NMDA for 3 hours): 66±5%
synaptic responses, of the initial amplitude ([1]; 10 μM NMDA for 1 day): 52±2%
synaptic responses, of the initial amplitude ([1]; 10 μM NMDA for 3 days): 18±3%
maximal amplitude of synaptic responses, of control values ([1]; 10 μM NMDA, three hours of incubation, n=3): 18±4%
effect of chronic exposure on synaptic responses [1]: dose-dependent decreases in synaptic responses
Hill coefficient [1]: 1.7±0.2
EC50 [1]: 5.2 ± 0.5 µM
amplitude of synaptic responses, of control values ([1]; end of incubation with 10 μM NMDA for 40 min., n=3): 48±12%
amplitude of synaptic responses, of control values ([1]; end of incubation with 10 μM NMDA for 3 hours, n=3): 22±7%
amplitude of synaptic responses, of control values ([1]; end of incubation with 10 μM NMDA for 1 day, n=3): 13±3%
amplitude of synaptic responses, of control values ([1]; end of incubation with 10 μM NMDA for 3 days, n=3): 11±3%
Hill coefficient (PI uptake method) [2]: 3.7±1.0
EC50 [2]: 21.6 ± 3.4 µM

CC12CC3CC(C)(C1)CC(N)(C3)C2 [memantine]
initial amplitude preserved ([3]; 10 μM NMDA and 30 μM memantine, up to 3 days of incubation, n=3): 78±5%
Hill coefficient of protection ([3]; 10 μM NMDA and various concentrations of memantine): 1.1±3
IC50 ([3]; Rattus norvegicus, 10 μM NMDA and various concentrations of memantine, read-out: IC50 of protection (Hill equation)): 6.9 ± 1.6 µM
synaptic transmission (neuronal samples; memantine alone, even at 30 μM, long-term incubation): did not result in a significant decrease

From US20050118565A1, “Systems and methods for assessing neuronal degeneration” (priority 2003, published 2005)
